According to patent US20140024041A1, “SOFT SUBSTRATE FOR CELL CULTURE AND PROCESS FOR PREPARING THE SAME” (COMMISSARIAT A L'ENERGIE ATOMIQUE ET AUX ENERGIES …, priority 2011, published 2014):

Key:
[1] = system: MCF10A cells; assay: Cell traction force measurement from crossbow micropattern bar shortening on PAA; format: cell-based, human
Description: Non-tumorigenic human epithelial cells from the mammary gland, MCF10A, were plated on the micropatterned PAA substrates. Cells specifically attached to the fibronectin coated micropatterns since non-exposed PAA regions prevented protein adsorption (FIG. 2D). The effect of micropattern geometry on cell traction forces orientation was tested on various shapes: disc, pacman and crossbow (FIG. 3A). Spread cells exerted traction forces on the micropattern that could be measured by looking at the displacement of fluorescent beads embedded in the PAA gel (see FIG. 3B and Material and Methods). Particle Image Velocimetry followed by individual particle tracking were used to measure bead displacements ((Marganski et al (2003) Methods Enzymol 361:197-211; Sabass et al (2008) Biophys J 94(1):207-220). Force fields were calculated from the bead displacement fields by using the Fourier transform traction cytometry ((Sabass et al, supra; Butler et al (2002) Am J Physiol Cell Physiol 282(3):C595-605). Force fields exerted by individual cells were overlaid and averaged to quantify their reproducibility (FIG. 3C, D). On homogeneously coated regions cells developed forces that were randomly distributed from one cell to the other. In cells constrained on disc shaped micropatterns, forces were still randomly oriented but their magnitudes were lowered due to reduced cell spreading. In cells constrained on pacman shaped micropatterns, forces distribution was geometrically biased due to enhanced cell contraction above non adhesive regions. […] Importantly, most of the traction forces were reproducibly oriented upward, along the straight adhesive bar on the extremity of which the inventors measured the highest pressure (FIG. 3D). […]
When actin cables have an unpredictable spatial distribution, a given deformation cannot be directly assigned to a defined force magnitude. […] When the deformation was measured along the shortest, and therefore most contracted, cell axis, the correlation was improved (FIG. 4C). […]

[2] = system: MCF10A expressing inducible ErbB2 receptor; assay: Cell traction force measurement from crossbow micropattern shortening, ErbB2 inducible cells; format: cell-based, human; conditions: ErbB2 receptors activated with ligand, 1 μM, 48 hr before measurement, FIG. 5C
Source text: When actin cables have an unpredictable spatial distribution, a given deformation cannot be directly assigned to a defined force magnitude. Indeed, forces applied on adjacent adhesion sites both affect local deformations, due to the continuous nature of the substrate. Each deformation results from local and distant forces. So the calculation of the force field is highly dependent on the spatial distribution of force application sites and the relationship between deformation and forces varies from one cell to the other. The inventors hypothesized that in cells developing a reproducible architecture and a controlled pattern of force application, a given local deformation could be assigned to a defined value of the contractile force. […] When the deformation was measured along the shortest, and therefore most contracted, cell axis, the correlation was improved (FIG. 4C). […] On the crossbow, a single image acquisition was sufficient to measure the bar length and read the corresponding average cell traction force using the calibration curve (FIG. 5F). […]
The culture of MCF10A cells and the generation of ΔCK2β cell line were described previously (Deshiere et al (2008) Mol Cell Biochem 316(1-2):107-113). […] Substrate relaxation was assessed by detaching cells with trypsin. […]

## TGFb1: known to induce epithelial to mesenchymal transition; from R&D systems
[1]; 2 ng/mL for 2 days before plating, FIG. 5C
  level of cell contraction vs WT cells (crossbow shortening): significantly higher level of cell contraction

## Cc1ccc2c(c1)C(=O)C1(O)CCN(c3ccccc3)C1=N2 (stereo not shown) [Blebbistatin]
[1]; 50 μM, single cell, FIG. 5B
  force magnitude decrease over time: follows a single exponential decay
[1]; increasing dose, crossbow bar length, FIG. 5A
  force inhibition profile in response to increasing dose: matched the myosin II inhibition profile

## CCC(C)(C)C(=O)C(=O)N1CCCC[C@H]1C(=O)O[C@H](CCc1ccc(OC)c(OC)c1)c1cccc(OCC(=O)NCCNC(=O)COc2cccc([C@@H](CCc3ccc(OC)c(OC)c3)OC(=O)[C@@H]3CCCCN3C(=O)C(=O)C(C)(C)CC)c2)c1 [AP 1510]
[2]
  level of cell contraction vs WT cells: no significant changes
